Results taken from ChEMBL document CHEMBL1201862, “PubChem BioAssay data set” (2004).
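Each compound was tested at five concentrations against cells in 96-well plates for 48 hours. GI50 = concentration required for 50% inhibition of growth.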 The source made the active and inactive calls. No stated cut-off is given here; in the data, active = GI50 up to about 1.1 µM and inactive = higher.

How the values were obtained:
Assay in all cases: inhibition of tumour cell growth, NCI panel, 48 h
SR = system: SR
A549 = system: A549
MOLT-4 = system: MOLT-4
K562 = system: K562
ACHN = system: ACHN
MDA-MB-231 = system: MDA-MB-231
UACC-62 = system: UACC-62
NCI/ADR-RES = system: NCI/ADR-RES
NCI-H460 = system: NCI-H460
HCT-116 = system: HCT-116
TK-10 = system: TK-10
T47D = system: T47D
HCT-15 = system: HCT-15
M14 = system: M14
NCI-H23 = system: NCI-H23
RPMI-8226 = system: RPMI-8226
OVCAR-5 = system: OVCAR-5
U-251 = system: U-251
DU-145 = system: DU-145
SF-268 = system: SF-268
UACC-257 = system: UACC-257
SF-539 = system: SF-539
NCI-H226 = system: NCI-H226
HCC 2998 = system: HCC 2998
EKVX = system: EKVX
RXF 393 = system: RXF 393
COLO 205 = system: COLO 205
SW-620 = system: SW-620
SF-295 = system: SF-295
SK-MEL-28 = system: SK-MEL-28
HOP-62 = system: HOP-62
786-0 = system: 786-0
CCRF-CEM = system: CCRF-CEM
IGROV-1 = system: IGROV-1
HOP-92 = system: HOP-92
KM12 = system: KM12
A498 = system: A498
NCI-H522 = system: NCI-H522
Malme-3M = system: Malme-3M
SK-OV-3 = system: SK-OV-3
SNB-19 = system: SNB-19
SN12C = system: SN12C
HT-29 = system: HT-29
CAKI-1 = system: CAKI-1
SK-MEL-5 = system: SK-MEL-5
HL-60 = system: HL-60
MCF7 = system: MCF7
MDA-MB-435 = system: MDA-MB-435
OVCAR-4 = system: OVCAR-4
SK-MEL-2 = system: SK-MEL-2
PC-3 = system: PC-3
UO-31 = system: UO-31
OVCAR-8 = system: OVCAR-8
OVCAR-3 = system: OVCAR-3
LOX IMVI = system: LOX IMVI
BT-549 = system: BT-549
MDA-N = system: MDA-N
SNB-75 = system: SNB-75
Hs-578T = system: Hs-578T

O=C1CC[C@@]2(O)[C@H]3Cc4ccc(-c5ccccc5)c5c4[C@@]2(CCN3CC2CC2)[C@H]1O5
GI50 (SR): 25.9 µM (inactive) | GI50 (A549): 20.6 µM (inactive) | GI50 (MOLT-4): 18.6 µM (inactive) | GI50 (K562): 24.3 µM (inactive) | GI50 (ACHN): 20.6 µM (inactive) | GI50 (MDA-MB-231): 15.2 µM (inactive) | GI50 (UACC-62): 12.2 µM (inactive) | GI50 (NCI/ADR-RES): 16.3 µM (inactive) | GI50 (NCI-H460): 17.9 µM (inactive) | GI50 (HCT-116): 16.9 µM (inactive) | GI50 (TK-10): 17.6 µM (inactive) | GI50 (T47D): 17 µM (inactive) | GI50 (HCT-15): 16.8 µM | GI50 (M14): 17.6 µM (inactive) | GI50 (NCI-H23): 24.1 µM (inactive) | GI50 (RPMI-8226): 15.4 µM (inactive) | GI50 (OVCAR-5): 17.2 µM (inactive) | GI50 (U-251): 17 µM (inactive) | GI50 (DU-145): 23.3 µM (inactive) | GI50 (SF-268): 14.3 µM (inactive) | GI50 (UACC-257): 16 µM (inactive) | GI50 (SF-539): 16.8 µM (inactive) | GI50 (NCI-H226): 20.3 µM (inactive) | GI50 (HCC 2998): 18.4 µM (inactive) | GI50 (EKVX): 19.6 µM (inactive) | GI50 (RXF 393): 9.66 µM (inactive) | GI50 (COLO 205): 17.7 µM (inactive) | GI50 (SW-620): 10.3 µM (inactive) | GI50 (SF-295): 19.2 µM (inactive) | GI50 (SK-MEL-28): 42.4 µM (inactive) | GI50 (HOP-62): 22.4 µM (inactive) | GI50 (786-0): 15.8 µM (inactive) | GI50 (CCRF-CEM): 24.4 µM (inactive) | GI50 (IGROV-1): 27.2 µM (inactive) | GI50 (HOP-92): 16.2 µM (inactive) | GI50 (KM12): 18.9 µM (inactive) | GI50 (A498): 18.1 µM (inactive) | GI50 (NCI-H522): 14.7 µM (inactive) | GI50 (Malme-3M): 15.5 µM (inactive) | GI50 (SK-OV-3): 23.9 µM (inactive) | GI50 (SNB-19): 25.5 µM (inactive) | GI50 (SN12C): 24.2 µM (inactive) | GI50 (HT-29): 13.7 µM (inactive) | GI50 (CAKI-1): 18.3 µM (inactive) | GI50 (SK-MEL-5): 14.2 µM (inactive) | GI50 (HL-60): 17.9 µM (inactive) | GI50 (MCF7): 18.2 µM (inactive) | GI50 (MDA-MB-435): 13.2 µM (inactive) | GI50 (OVCAR-4): 35.9 µM (inactive) | GI50 (SK-MEL-2): 17.9 µM (inactive) | GI50 (PC-3): 19 µM (inactive) | GI50 (UO-31): 16.1 µM (inactive) | GI50 (OVCAR-8): 16.1 µM (inactive) | GI50 (OVCAR-3): 18.1 µM (inactive) | GI50 (LOX IMVI): 16 µM (inactive) | GI50 (BT-549): 14.3 µM (inactive) | GI50 (MDA-N): 16.4 µM (inactive)

CCCOc1ccc2sc(NC(=O)c3cc([N+](=O)[O-])cc([N+](=O)[O-])c3)nc2c1
GI50 (A549): 24.1 µM (inactive) | GI50 (MOLT-4): 36.3 µM (inactive) | GI50 (K562): 65.5 µM (inactive) | GI50 (ACHN): 48.4 µM (inactive) | GI50 (MDA-MB-231): 35 µM (inactive) | GI50 (UACC-62): 25.5 µM (inactive) | GI50 (NCI/ADR-RES): 22.6 µM (inactive) | GI50 (NCI-H460): 50.4 µM (inactive) | GI50 (HCT-116): 20.6 µM (inactive) | GI50 (TK-10): 28.1 µM (inactive) | GI50 (T47D): 53.2 µM (inactive) | GI50 (HCT-15): 53.7 µM | GI50 (M14): 50.4 µM (inactive) | GI50 (NCI-H23): 23 µM (inactive) | GI50 (RPMI-8226): 31.8 µM (inactive) | GI50 (OVCAR-5): > 100 µM (inactive) | GI50 (U-251): 32.4 µM (inactive) | GI50 (DU-145): 60.7 µM (inactive) | GI50 (SF-268): 43.8 µM (inactive) | GI50 (SF-539): 29.2 µM (inactive) | GI50 (NCI-H226): 27.9 µM (inactive) | GI50 (SNB-75): 30.5 µM (inactive) | GI50 (EKVX): 19.4 µM (inactive) | GI50 (RXF 393): 48.4 µM (inactive) | GI50 (COLO 205): 54.1 µM (inactive) | GI50 (SW-620): 31 µM (inactive) | GI50 (SF-295): 35.6 µM (inactive) | GI50 (SK-MEL-28): 50.5 µM (inactive) | GI50 (HOP-62): 78.9 µM (inactive) | GI50 (786-0): 52.2 µM (inactive) | GI50 (CCRF-CEM): 30.3 µM (inactive) | GI50 (IGROV-1): 10.6 µM (inactive) | GI50 (HOP-92): 16 µM (inactive) | GI50 (KM12): 26.8 µM (inactive) | GI50 (A498): 23.7 µM (inactive) | GI50 (Malme-3M): 25.4 µM (inactive) | GI50 (SK-OV-3): 36.5 µM (inactive) | GI50 (SNB-19): 42.5 µM (inactive) | GI50 (SN12C): 42.1 µM (inactive) | GI50 (HT-29): 69.8 µM (inactive) | GI50 (CAKI-1): 28.6 µM (inactive) | GI50 (SK-MEL-5): 17 µM (inactive) | GI50 (HL-60): 67.3 µM (inactive) | GI50 (MCF7): 40.2 µM (inactive) | GI50 (MDA-MB-435): 36.7 µM (inactive) | GI50 (Hs-578T): 13.7 µM (inactive) | GI50 (OVCAR-4): 18.8 µM (inactive) | GI50 (SK-MEL-2): 50.2 µM (inactive) | GI50 (PC-3): 28.4 µM (inactive) | GI50 (UO-31): 18.5 µM (inactive) | GI50 (OVCAR-8): 31.3 µM (inactive) | GI50 (OVCAR-3): 26.3 µM (inactive) | GI50 (LOX IMVI): 20.8 µM (inactive) | GI50 (BT-549): 47.8 µM (inactive)

Cc1nn(C(=O)Cc2ccccc2)c2c1C(c1ccc(Cl)cc1)SC(=N)N2 (stereo not drawn)
GI50 (SR): > 100 µM (inactive) | GI50 (A549): > 100 µM (inactive) | GI50 (MOLT-4): > 100 µM (inactive) | GI50 (K562): > 100 µM (inactive) | GI50 (ACHN): > 100 µM (inactive) | GI50 (MDA-MB-231): > 100 µM (inactive) | GI50 (UACC-62): > 100 µM (inactive) | GI50 (NCI-H460): > 100 µM (inactive) | GI50 (HCT-116): > 100 µM (inactive) | GI50 (TK-10): > 100 µM (inactive) | GI50 (T47D): > 100 µM (inactive) | GI50 (HCT-15): > 100 µM | GI50 (M14): > 100 µM (inactive) | GI50 (NCI-H23): > 100 µM (inactive) | GI50 (RPMI-8226): > 100 µM (inactive) | GI50 (DU-145): > 100 µM (inactive) | GI50 (SF-268): > 100 µM (inactive) | GI50 (UACC-257): > 100 µM (inactive) | GI50 (SF-539): > 100 µM (inactive) | GI50 (SNB-75): 17.2 µM (inactive) | GI50 (HCC 2998): > 100 µM (inactive) | GI50 (EKVX): > 100 µM (inactive) | GI50 (COLO 205): > 100 µM (inactive) | GI50 (SW-620): > 100 µM (inactive) | GI50 (SF-295): > 100 µM (inactive) | GI50 (SK-MEL-28): > 100 µM (inactive) | GI50 (HOP-62): > 100 µM (inactive) | GI50 (786-0): > 100 µM (inactive) | GI50 (CCRF-CEM): > 100 µM (inactive) | GI50 (IGROV-1): > 100 µM (inactive) | GI50 (KM12): > 100 µM (inactive) | GI50 (A498): > 100 µM (inactive) | GI50 (NCI-H522): > 100 µM (inactive) | GI50 (Malme-3M): > 100 µM (inactive) | GI50 (SK-OV-3): > 100 µM (inactive) | GI50 (SN12C): > 100 µM (inactive) | GI50 (HT-29): > 100 µM (inactive) | GI50 (CAKI-1): > 100 µM (inactive) | GI50 (SK-MEL-5): > 100 µM (inactive) | GI50 (HL-60): > 100 µM (inactive) | GI50 (MCF7): > 100 µM (inactive) | GI50 (MDA-MB-435): > 100 µM (inactive) | GI50 (Hs-578T): > 100 µM (inactive) | GI50 (PC-3): > 100 µM (inactive) | GI50 (OVCAR-8): > 100 µM (inactive) | GI50 (LOX IMVI): > 100 µM (inactive) | GI50 (BT-549): > 100 µM (inactive)
